Assay results as given in patent US20250161266A1, “Antibacterial 4.5 Diaryl-Thiophen-2-YL Hexafluoropropan-2-OLS” (priority 2022, published 2025).
“And” between values parts separate entries of the source, which are not always exact repeats. Equal entries are not always repeated.

Tested on: Bacillus anthracis
Type: cell-based

Row | Compound | MIC | MIC50 | MIC90
1 | Cc1cc(Cl)ccc1-c1cc(C(O)(C(F)(F)F)C(F)(F)F)sc1-c1ccc(Cl)cc1CO [DNM94A, 2-(5-(4-chloro-2-(hydroxymethyl)phenyl)-4-(4-chloro-2-methylphenyl)thiophen-2-yl)-1,1,1,3,3,3-hexafluoropropan-2-ol] | 1 µg·mL | 1 µg·mL | 1 µg·mL
2 | Cc1cc(Cl)ccc1-c1sc(C(O)(C(F)(F)F)C(F)(F)F)cc1-c1ccc(Cl)cc1CO [DNM95A, 2-(4-(4-chloro-2-(hydroxymethyl)phenyl)-5-(4-chloro-2-methylphenyl)thiophen-2-yl)-1,1,1,3,3,3-hexafluoropropan-2-ol] | 1 µg·mL and 0.5 µg·mL | 1 µg·mL | 1 µg·mL
3 | colistin [reference compound] | – | GT64 μg ml | GT64 μg ml
